Measured values published in paper PMC7932537, “Quantitative profiling of protease specificity” (PLoS Computational Biology, 2021).

Legend:
MMP-2 [1] = test: Substrate phage display with NGS: relative probability (RP) of P3-P1' tetramer clusters; format: biochemical, human; conditions: MMP2;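 further: ratio of tetramer probability after protease selection to that in naive phage library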
MMP-2 [2] = molecular target: T1, MMP-2 (Homo sapiens, UniProt P08253); test: K(obs) of individual phage substrates (set of 1369); format: biochemical; conditions: MMP2
T1 sequence (P08253 110-660): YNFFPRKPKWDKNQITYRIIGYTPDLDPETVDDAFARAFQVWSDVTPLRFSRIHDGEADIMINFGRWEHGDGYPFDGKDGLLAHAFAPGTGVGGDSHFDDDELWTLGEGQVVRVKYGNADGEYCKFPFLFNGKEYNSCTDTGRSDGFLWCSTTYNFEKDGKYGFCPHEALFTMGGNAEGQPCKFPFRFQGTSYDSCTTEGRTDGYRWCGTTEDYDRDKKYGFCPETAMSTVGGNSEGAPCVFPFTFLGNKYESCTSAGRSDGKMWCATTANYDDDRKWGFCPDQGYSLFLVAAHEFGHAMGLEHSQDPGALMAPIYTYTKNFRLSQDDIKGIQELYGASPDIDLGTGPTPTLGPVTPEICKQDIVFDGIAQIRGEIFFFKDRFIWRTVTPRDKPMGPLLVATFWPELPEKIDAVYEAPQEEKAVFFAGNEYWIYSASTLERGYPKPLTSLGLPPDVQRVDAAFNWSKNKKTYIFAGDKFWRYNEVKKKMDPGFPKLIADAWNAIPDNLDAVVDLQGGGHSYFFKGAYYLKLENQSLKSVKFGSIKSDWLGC

MMP-9 = MMP-9 (Homo sapiens, UniProt P14780); test: as above; format: biochemical; conditions: MMP9
[3] = RP of the P3-P1' tetramer contained in the substrate (substrate phage display with NGS)
[4] = individual phage substrates, set of 1369 peptides, cleavage position marked by hyphen in sequence
[5] = individual phage substrates, set of 1369 peptides, hyphen in sequence marks cleavage position
[6] = RP of the P3-P1' tetramer contained in the substrate
[7] = individual phage substrate of the set of 1369 peptides, cleavage position marked by '-'
[8] = individual phage substrate of the set of 1369 peptides, dash in the sequence marks the cleavage position

MMP-9, sequence (P14780 94-707): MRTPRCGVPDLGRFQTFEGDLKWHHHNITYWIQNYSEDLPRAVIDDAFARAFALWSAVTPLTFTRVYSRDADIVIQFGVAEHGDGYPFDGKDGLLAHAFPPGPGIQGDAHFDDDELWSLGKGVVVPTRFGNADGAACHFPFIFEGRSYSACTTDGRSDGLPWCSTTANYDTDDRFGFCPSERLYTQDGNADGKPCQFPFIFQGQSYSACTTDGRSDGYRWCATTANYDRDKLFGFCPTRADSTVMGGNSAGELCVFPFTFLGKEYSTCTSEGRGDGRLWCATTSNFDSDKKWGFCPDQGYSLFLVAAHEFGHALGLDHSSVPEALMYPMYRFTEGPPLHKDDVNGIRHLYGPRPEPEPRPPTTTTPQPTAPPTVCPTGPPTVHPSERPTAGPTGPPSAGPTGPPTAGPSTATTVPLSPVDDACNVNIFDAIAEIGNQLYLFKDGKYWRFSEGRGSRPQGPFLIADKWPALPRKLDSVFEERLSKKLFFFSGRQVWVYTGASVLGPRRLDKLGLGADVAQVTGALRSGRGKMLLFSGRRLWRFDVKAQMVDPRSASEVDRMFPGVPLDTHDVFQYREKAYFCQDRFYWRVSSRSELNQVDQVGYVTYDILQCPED

| Substance | relative probability (RP) (MMP-2 [1]; [3]) | Kobs (MMP-2 [2]; [4]) [M⁻¹ s⁻¹] | Kobs (MMP-9; [5]) [M⁻¹ s⁻¹] | relative probability (RP) (MMP-2 [1]; [6]) | Kobs (MMP-2 [2]; [7]) [M⁻¹ s⁻¹] | Kobs (MMP-9; [8]) [M⁻¹ s⁻¹] |
| --- | --- | --- | --- | --- | --- | --- |
| SIAFA-LTASG | 17.8812 | 12792.1 | 12792.1 | – | – | – |
| SIHLA-LTASG | 11.3603 | 1561.44 | 171.876 | – | – | – |
| SIVRM-LTASG | 15.9125 | 7386.83 | 4335.13 | – | – | – |
| SKMAH-LTASG | – | – | – | 29.5006 | 2409.72 | 0 |
| SKPNF-LTASG | – | – | – | 15.743 | 5889.62 | 3741.87 |
| SLFLH-MTASG | 0.2069 | 142.481 | 0 | – | – | – |
| SLNRA-LTASG | – | – | – | 16.7485 | 12792.1 | 4470.66 |
| SLPRP-LTASG | 34.3303 | 6396.07 | 10866.7 | – | – | – |
| SLPTS-LTASG | 28.926 | 8321.48 | 2097.28 | – | – | – |
| SLVLN-MTASG | 19.025 | 3438.54 | 4613.14 | – | – | – |
| SLVRF-LTASG | – | – | – | 15.0438 | 12792.1 | 12792.1 |
| SMGSH-LTASG | 4.2785 | 1154.21 | 0 | – | – | – |
| SNLNS-TASGA | – | – | – | 0.4784 | 4205.91 | 4470.66 |
| SPPLA-LTASG | 34.4921 | 10866.7 | 10866.7 | – | – | – |
| SQPHL-LTASG | 16.4802 | 1816.46 | 2097.28 | – | – | – |
| SQPIH-MTASG | – | – | – | 18.8886 | 2097.28 | 6688.74 |
| SQPTG-LTASG | 33.1098 | 12792.1 | 12792.1 | – | – | – |
| SQVRF-LTASG | – | – | – | 15.0438 | 8321.48 | 6688.74 |
| SRAYS-LTASG | – | – | – | 18.7071 | 7815.03 | 8941.32 |
| SRYLP-MTASG | 0.4306 | 0 | 0 | – | – | – |
| SSVWH-ITASG | – | – | – | 1.931 | 323.705 | 836.403 |
| STIRM-LTASG | – | – | – | 12.7446 | 2837.92 | 2157.02 |
| STVFH-MTASG | 5.168 | 0 | 1763.55 | – | – | – |
| SVGLY-LTASG | – | – | – | 0.07615 | 418.952 | 0 |
| SYALH-LTASG | – | – | – | 14.6488 | 12792.1 | 3964.21 |
| TAPKL-LTASG | – | – | – | 15.3454 | 7815.03 | 12792.1 |
| TATNW-LTASG | – | – | – | 15.348 | 5461.43 | 0 |

| Substance | relative probability (RP) (MMP-2 [1]; [3]) | Kobs (MMP-2 [2]; [4]) [M⁻¹ s⁻¹] | Kobs (MMP-9; [5]) [M⁻¹ s⁻¹] | relative probability (RP) (MMP-2 [1]; [6]) | Kobs (MMP-2 [2]; [7]) [M⁻¹ s⁻¹] | Kobs (MMP-9; [8]) [M⁻¹ s⁻¹] |
| --- | --- | --- | --- | --- | --- | --- |
| TFARS-LTASG | 17.186 | 8941.32 | 5889.62 | – | – | – |
| TFPFM-LTASG | – | – | – | 19.624 | 1981.53 | 12792.1 |
| TFWGA-LTASG | – | – | – | 26.3441 | 10866.7 | 0 |
| TGVSW-LTASG | 30.6564 | 12792.1 | 10866.7 | – | – | – |
| TILRN-ITASG | – | – | – | 19.0698 | 7815.03 | 2837.92 |
| TIPFY-MTASG | 8.184 | 3964.21 | 9740.44 | – | – | – |
| TKMAW-LTASG | – | – | – | 31.5866 | 7015.91 | 1513.13 |
| TKWLA-LTASG | 1.218 | 3079.62 | 3637.04 | – | – | – |
| TKYAY-ITASG | 1.709 | 0 | 0 | – | – | – |
| TMGMN-MTASG | 0 | 142.481 | 517.582 | – | – | – |
| TNPIM-LTASG | 15.4441 | 418.952 | 1071.29 | – | – | – |
| TQVFG-LTASG | 12.5523 | 2687.73 | 5461.43 | – | – | – |
| TRIAY-LTASG | – | – | – | 27.9862 | 12792.1 | 3165.09 |
| TRLAH-VTASG | 11.7405 | 1660.66 | 0 | – | – | – |
| TSFRM-LTASG | 0.2112 | 0 | 0 | – | – | – |
| TSLAN-LTASG | 34.4823 | 9740.44 | 0 | – | – | – |
| TSPVA-LTASG | – | – | – | 34.2983 | 12792.1 | 12792.1 |
| TTHYS-LTASG | 0.1694 | 0 | 142.481 | – | – | – |
| TTLRW-WTASG | 6.313 | 1816.46 | 690.17 | – | – | – |
| TTPSW-LTASG | 35.705 | 9740.44 | 12792.1 | – | – | – |
| TTPYH-ITASG | – | – | – | 15.3574 | 4922.1 | 12792.1 |
| TTYMS-LTASG | – | – | – | 0.07249 | 0 | 0 |
| TVLNS-LTASG | 18.3633 | 3438.54 | 0 | – | – | – |
| TVPQM-ITASG | – | – | – | 16.6558 | 5269.78 | 7815.03 |
| TVPRA-WTASG | 34.1791 | 8941.32 | 8941.32 | – | – | – |
| TVPYQ-LTASG | – | – | – | 25.4279 | 12792.1 | 12792.1 |
